In ChEMBL document CHEMBL4507258 (2021):

How the values were obtained:
[1] = target: 1-phosphatidylinositol 3-phosphate 5-kinase (Homo sapiens) (UniProt Q9Y2I7); conditions: Compound concentration 1000.0 nM
[2] = target: Mitogen-activated protein kinase kinase kinase kinase 1 (Homo sapiens) (UniProt Q92918); conditions: Compound concentration 1000.0 nM
[3] = target: Serine/threonine-protein kinase DCLK3 (Homo sapiens) (UniProt Q9C098); conditions: Compound concentration 1000.0 nM
[4] = target: RAC-alpha serine/threonine-protein kinase (Homo sapiens) (UniProt P31749); conditions: Compound concentration 1000.0 nM
[5] = target: Cyclin-dependent kinase 9 (Homo sapiens) (UniProt P50750); conditions: Compound concentration 1000.0 nM
[6] = target: Serine/threonine-protein kinase MRCK gamma (Homo sapiens) (UniProt Q6DT37); conditions: Compound concentration 1000.0 nM
[7] = target: Ribosomal protein S6 kinase alpha-2 (Homo sapiens) (UniProt Q15349); conditions: Compound concentration 1000.0 nM
[8] = target: Mitogen-activated protein kinase kinase kinase kinase 2 (Homo sapiens) (UniProt Q12851); conditions: Compound concentration 1000.0 nM
[9] = target: T1, 5-hydroxytryptamine receptor 3A (Homo sapiens) (UniProt P46098); conditions: Compound concentration 10.0 uM
T1 sequence (whole entry): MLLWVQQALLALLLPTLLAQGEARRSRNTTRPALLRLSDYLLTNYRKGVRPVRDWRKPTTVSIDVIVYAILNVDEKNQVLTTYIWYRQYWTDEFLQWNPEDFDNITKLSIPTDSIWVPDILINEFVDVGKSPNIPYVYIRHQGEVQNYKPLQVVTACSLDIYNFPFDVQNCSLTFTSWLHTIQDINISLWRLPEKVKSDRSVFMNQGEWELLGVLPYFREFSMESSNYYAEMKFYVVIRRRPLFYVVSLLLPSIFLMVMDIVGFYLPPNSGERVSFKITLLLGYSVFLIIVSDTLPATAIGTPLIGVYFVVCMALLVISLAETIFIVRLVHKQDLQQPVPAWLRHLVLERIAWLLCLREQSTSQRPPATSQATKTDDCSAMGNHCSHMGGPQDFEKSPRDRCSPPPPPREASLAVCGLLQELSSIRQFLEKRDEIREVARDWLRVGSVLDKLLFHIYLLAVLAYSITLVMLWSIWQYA

[10] = target: Cyclin-dependent kinase 11B (Homo sapiens) (UniProt P21127); conditions: Compound concentration 1000.0 nM
Chain of Cyclin-dependent kinase 11B (Homo sapiens) (P21127 whole entry): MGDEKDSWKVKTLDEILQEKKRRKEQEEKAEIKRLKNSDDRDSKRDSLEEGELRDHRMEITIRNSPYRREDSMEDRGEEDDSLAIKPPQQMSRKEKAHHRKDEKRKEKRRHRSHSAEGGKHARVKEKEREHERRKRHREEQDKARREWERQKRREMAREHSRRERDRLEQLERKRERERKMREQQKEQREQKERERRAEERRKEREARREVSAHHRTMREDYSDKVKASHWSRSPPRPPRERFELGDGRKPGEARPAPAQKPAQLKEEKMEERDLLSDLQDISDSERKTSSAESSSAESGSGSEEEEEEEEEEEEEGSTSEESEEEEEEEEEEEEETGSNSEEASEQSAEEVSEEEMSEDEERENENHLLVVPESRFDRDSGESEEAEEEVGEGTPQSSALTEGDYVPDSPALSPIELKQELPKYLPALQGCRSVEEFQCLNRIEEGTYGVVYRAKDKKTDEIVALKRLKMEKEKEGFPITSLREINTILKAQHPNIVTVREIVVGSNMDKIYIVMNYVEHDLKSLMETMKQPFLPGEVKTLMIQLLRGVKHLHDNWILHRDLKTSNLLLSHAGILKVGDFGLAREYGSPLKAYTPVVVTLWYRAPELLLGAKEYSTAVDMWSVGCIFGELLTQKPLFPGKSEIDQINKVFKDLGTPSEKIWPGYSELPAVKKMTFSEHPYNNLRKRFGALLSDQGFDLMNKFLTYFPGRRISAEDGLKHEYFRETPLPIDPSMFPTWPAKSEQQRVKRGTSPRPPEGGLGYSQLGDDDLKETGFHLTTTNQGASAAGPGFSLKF

[11] = target: G protein-coupled receptor kinase 3 (Homo sapiens) (UniProt P35626); conditions: Compound concentration 1000.0 nM
[12] = target: Ephrin type-A receptor 2 (Homo sapiens) (UniProt P29317); conditions: Compound concentration 1000.0 nM
[13] = target: Cyclin-dependent kinase-like 2 (Homo sapiens) (UniProt Q92772); conditions: Compound concentration 1000.0 nM
[14] = test system: Receptor-type tyrosine-protein kinase FLT3 (Homo sapiens), P36888 [D835H]; conditions: Compound concentration 1000.0 nM
[15] = target: Tyrosine-protein kinase ABL1 (Homo sapiens) (UniProt P00519); conditions: Compound concentration 1000.0 nM
Chain of Tyrosine-protein kinase ABL1 (Homo sapiens) (P00519 whole entry): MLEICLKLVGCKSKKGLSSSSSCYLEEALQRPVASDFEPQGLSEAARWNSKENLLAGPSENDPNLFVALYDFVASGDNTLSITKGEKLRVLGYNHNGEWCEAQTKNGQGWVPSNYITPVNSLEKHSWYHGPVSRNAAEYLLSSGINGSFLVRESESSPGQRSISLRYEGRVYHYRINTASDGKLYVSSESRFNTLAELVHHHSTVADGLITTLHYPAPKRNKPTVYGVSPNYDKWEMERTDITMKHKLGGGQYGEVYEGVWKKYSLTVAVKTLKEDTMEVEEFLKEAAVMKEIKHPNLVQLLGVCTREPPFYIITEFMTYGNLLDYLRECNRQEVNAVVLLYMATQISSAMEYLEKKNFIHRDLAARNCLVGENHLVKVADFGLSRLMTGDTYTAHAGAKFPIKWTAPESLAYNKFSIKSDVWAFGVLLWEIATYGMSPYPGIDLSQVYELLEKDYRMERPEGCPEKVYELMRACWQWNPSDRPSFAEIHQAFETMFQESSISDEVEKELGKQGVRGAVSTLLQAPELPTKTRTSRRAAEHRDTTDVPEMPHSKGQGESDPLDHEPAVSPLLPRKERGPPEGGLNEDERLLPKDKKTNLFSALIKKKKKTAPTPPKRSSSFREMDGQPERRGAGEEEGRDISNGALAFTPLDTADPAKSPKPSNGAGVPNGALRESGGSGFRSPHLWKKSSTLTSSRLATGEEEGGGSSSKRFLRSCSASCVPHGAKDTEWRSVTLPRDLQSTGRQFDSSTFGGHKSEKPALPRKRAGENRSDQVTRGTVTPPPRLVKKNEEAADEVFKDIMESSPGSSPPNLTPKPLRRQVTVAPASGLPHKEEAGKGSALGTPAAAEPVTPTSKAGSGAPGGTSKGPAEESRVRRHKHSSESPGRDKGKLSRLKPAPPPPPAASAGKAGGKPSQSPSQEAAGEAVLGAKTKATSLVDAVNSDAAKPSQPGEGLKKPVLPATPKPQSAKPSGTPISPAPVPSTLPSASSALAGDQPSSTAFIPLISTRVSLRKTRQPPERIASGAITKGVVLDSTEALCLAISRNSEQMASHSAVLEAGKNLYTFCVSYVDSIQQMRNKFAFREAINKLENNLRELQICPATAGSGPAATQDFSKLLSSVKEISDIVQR

[16] = test system: Receptor-type tyrosine-protein kinase FLT3 (Homo sapiens), P36888 [N841I]; conditions: Compound concentration 1000.0 nM
[17] = target: TGF-beta receptor type-1 (Homo sapiens) (UniProt P36897); conditions: Compound concentration 1000.0 nM
[18] = test system: Receptor-type tyrosine-protein kinase FLT3 (Homo sapiens), P36888 [UNDEFINED MUTATION]; conditions: Compound concentration 1000.0 nM
[19] = target: Tyrosine-protein kinase receptor Tie-1 (Homo sapiens) (UniProt P35590); conditions: Compound concentration 1000.0 nM
[20] = target: Ribosomal protein S6 kinase alpha-1 (Homo sapiens) (UniProt Q15418); conditions: Compound concentration 1000.0 nM
[21] = target: Ephrin type-B receptor 1 (Homo sapiens) (UniProt P54762); conditions: Compound concentration 1000.0 nM
Chain of Ephrin type-B receptor 1 (Homo sapiens) (P54762 whole entry): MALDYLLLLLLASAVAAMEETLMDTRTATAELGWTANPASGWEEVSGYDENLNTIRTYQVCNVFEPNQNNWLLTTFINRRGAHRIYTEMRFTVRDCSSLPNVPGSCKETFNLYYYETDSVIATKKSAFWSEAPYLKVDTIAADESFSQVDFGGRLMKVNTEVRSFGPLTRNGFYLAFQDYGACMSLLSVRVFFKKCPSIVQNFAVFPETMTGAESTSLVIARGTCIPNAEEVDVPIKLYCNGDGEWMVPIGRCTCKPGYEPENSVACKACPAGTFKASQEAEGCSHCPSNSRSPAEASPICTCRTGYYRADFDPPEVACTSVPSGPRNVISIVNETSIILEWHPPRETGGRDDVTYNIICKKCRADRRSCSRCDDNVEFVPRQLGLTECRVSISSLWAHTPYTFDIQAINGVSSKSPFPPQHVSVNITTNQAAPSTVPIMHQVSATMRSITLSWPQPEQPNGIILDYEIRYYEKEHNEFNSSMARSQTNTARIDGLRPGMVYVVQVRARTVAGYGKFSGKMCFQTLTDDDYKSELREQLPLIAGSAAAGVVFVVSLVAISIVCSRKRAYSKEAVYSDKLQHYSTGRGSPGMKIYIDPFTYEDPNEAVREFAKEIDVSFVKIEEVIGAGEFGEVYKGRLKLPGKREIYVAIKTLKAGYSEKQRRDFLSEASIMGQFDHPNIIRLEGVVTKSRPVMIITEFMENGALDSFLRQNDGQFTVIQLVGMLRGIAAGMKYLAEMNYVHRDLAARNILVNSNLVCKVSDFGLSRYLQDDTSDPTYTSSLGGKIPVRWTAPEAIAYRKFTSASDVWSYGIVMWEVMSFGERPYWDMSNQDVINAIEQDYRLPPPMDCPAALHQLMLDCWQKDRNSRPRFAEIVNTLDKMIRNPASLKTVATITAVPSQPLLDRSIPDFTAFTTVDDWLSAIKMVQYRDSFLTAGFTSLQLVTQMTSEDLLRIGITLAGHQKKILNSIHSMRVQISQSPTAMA

[22] = target: TGF-beta receptor type-2 (Homo sapiens) (UniProt P37173); conditions: Compound concentration 1000.0 nM
[23] = target: Tyrosine-protein kinase ABL1 (Homo sapiens) (UniProt P00519); conditions: Compound concentration 1000.0 nM; remark: listed apart in the source
[24] = target: Dual specificity mitogen-activated protein kinase kinase 6 (Homo sapiens) (UniProt P52564); conditions: Compound concentration 1000.0 nM
[25] = target: Serine/threonine-protein kinase LATS2 (Homo sapiens) (UniProt Q9NRM7); conditions: Compound concentration 1000.0 nM
[26] = target: Myosin light chain kinase family member 4 (Homo sapiens) (UniProt Q86YV6); conditions: Compound concentration 1000.0 nM
[27] = target: Serine/threonine-protein kinase pim-3 (Homo sapiens) (UniProt Q86V86); conditions: Compound concentration 1000.0 nM
[28] = target: LIM domain kinase 2 (Homo sapiens) (UniProt P53671); conditions: Compound concentration 1000.0 nM
[29] = target: Mitogen-activated protein kinase 6 (Homo sapiens) (UniProt Q16659); conditions: Compound concentration 1000.0 nM
[30] = target: Serine/threonine-protein kinase DCLK1 (Homo sapiens) (UniProt O15075); conditions: Compound concentration 1000.0 nM
Chain of Serine/threonine-protein kinase DCLK1 (Homo sapiens) (O15075 whole entry): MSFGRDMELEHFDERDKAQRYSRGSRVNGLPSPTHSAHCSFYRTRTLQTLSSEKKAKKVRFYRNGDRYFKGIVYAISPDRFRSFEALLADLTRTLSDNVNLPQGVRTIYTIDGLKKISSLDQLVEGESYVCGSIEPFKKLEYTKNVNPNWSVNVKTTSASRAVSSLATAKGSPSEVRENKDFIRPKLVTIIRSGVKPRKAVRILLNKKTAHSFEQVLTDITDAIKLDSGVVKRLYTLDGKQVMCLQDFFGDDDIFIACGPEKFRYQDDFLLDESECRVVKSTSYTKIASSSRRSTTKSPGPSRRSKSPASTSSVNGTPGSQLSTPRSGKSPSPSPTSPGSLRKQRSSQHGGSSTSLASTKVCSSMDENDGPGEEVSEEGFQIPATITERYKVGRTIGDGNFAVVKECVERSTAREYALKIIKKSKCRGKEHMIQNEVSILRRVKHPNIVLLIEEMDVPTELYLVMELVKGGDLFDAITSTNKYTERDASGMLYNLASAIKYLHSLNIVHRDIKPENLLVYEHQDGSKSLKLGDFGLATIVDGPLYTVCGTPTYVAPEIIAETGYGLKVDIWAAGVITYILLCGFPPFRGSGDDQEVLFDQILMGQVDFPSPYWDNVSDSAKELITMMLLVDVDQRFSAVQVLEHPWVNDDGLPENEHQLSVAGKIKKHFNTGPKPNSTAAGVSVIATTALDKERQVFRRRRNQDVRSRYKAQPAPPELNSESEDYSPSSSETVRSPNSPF

[31] = test system: Tyrosine-protein kinase ABL1 (Homo sapiens), P00519 [F317I]; conditions: Compound concentration 1000.0 nM
Chain of Tyrosine-protein kinase ABL1 (Homo sapiens), P00519 [F317I] (P00519 whole entry F317I): as the sequence (P00519 whole entry) above, with F317I counted along it

[32] = target: Serine/threonine-protein kinase Nek3 (Homo sapiens) (UniProt P51956); conditions: Compound concentration 1000.0 nM
[33] = target: Cyclin-dependent kinase 18 (Homo sapiens) (UniProt Q07002); conditions: Compound concentration 1000.0 nM
[34] = target: Receptor-interacting serine/threonine-protein kinase 1 (Homo sapiens) (UniProt Q13546); conditions: Compound concentration 1000.0 nM
[35] = target: Protein kinase C iota type (Homo sapiens) (UniProt P41743); conditions: Compound concentration 1000.0 nM
Chain of Protein kinase C iota type (Homo sapiens) (P41743 whole entry): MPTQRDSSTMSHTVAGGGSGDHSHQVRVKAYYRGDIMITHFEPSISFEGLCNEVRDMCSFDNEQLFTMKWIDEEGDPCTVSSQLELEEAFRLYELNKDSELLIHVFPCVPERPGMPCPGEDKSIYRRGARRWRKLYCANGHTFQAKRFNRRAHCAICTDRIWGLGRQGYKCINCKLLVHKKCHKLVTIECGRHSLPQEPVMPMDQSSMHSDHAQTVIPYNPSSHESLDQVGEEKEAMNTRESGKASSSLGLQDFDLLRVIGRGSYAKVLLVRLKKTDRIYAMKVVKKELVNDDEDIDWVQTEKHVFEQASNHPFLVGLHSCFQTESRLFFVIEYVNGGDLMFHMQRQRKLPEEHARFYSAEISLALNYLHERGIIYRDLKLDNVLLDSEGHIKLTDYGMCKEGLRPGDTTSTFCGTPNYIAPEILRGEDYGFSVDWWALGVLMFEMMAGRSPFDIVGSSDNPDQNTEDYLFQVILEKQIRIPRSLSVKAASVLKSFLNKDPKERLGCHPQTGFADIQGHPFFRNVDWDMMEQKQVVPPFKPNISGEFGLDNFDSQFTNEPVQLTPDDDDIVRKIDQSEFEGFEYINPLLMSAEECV

[36] = target: Dual specificity testis-specific protein kinase 1 (Homo sapiens) (UniProt Q15569); conditions: Compound concentration 1000.0 nM
Chain of Dual specificity testis-specific protein kinase 1 (Homo sapiens) (Q15569 whole entry, looked up): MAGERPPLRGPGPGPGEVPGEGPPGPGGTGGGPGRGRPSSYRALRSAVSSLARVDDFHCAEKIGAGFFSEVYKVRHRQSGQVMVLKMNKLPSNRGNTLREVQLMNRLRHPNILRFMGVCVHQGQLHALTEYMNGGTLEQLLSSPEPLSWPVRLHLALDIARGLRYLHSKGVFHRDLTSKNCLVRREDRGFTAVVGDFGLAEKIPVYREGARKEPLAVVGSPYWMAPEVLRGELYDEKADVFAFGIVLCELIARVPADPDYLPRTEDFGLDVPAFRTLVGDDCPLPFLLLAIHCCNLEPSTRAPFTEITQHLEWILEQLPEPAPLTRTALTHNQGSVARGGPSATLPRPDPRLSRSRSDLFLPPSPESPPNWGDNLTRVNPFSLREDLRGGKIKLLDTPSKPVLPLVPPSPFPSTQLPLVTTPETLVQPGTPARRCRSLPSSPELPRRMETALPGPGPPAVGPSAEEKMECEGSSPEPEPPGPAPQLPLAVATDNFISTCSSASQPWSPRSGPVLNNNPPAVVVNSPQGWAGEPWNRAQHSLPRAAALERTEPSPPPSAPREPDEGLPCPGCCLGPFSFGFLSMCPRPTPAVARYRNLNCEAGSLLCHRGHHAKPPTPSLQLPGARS

[37] = target: Serine/threonine-protein kinase/endoribonuclease IRE1 (Homo sapiens) (UniProt O75460); conditions: Compound concentration 1000.0 nM
[38] = target: Serine/threonine-protein kinase tousled-like 1 (Homo sapiens) (UniProt Q9UKI8); conditions: Compound concentration 1000.0 nM
[39] = target: Alpha-1B adrenergic receptor (Homo sapiens) (UniProt P35368); conditions: Compound concentration 10.0 uM

Compound | residual activity [1] [%] | residual activity [2] [%] | residual activity [3] [%] | residual activity [4] [%] | residual activity [5] [%] | residual activity [6] [%] | residual activity [7] [%] | residual activity [8] [%] | inhibition [9] [%] | residual activity [10] [%] | residual activity [11] [%] | residual activity [12] [%] | residual activity [13] [%] | residual activity [14] [%] | residual activity [15] [%] | residual activity [16] [%] | residual activity [17] [%] | residual activity [18] [%] | residual activity [19] [%] | residual activity [20] [%] | other results
CCCCN(CCCC)C(=O)CN1C[C@@H](c2cc(OC)c3c(c2)OCO3)[C@H](C(=O)O)[C@H]1CC(C)(C)CCC [A-545] | 81.4 | 99.6 | 100 | 85.7 | 100 | 94.4 | 90.2 | 100 | 2.23 | 100 | 87.6 | 97.8 | 39.2 | 100 | 100 | 96.1 | 100 | 100 | 94.7 | 91.3 | residual activity [21]: 100%; residual activity [22]: 98.6%; residual activity [23]: 94.8%; residual activity [24]: 90.8%; residual activity [25]: 100%; residual activity [26]: 100%; residual activity [27]: 81.5%; residual activity [28]: 86.8%; residual activity [29]: 96.5%; residual activity [30]: 81.5%; residual activity [31]: 100%; residual activity [32]: 72.9%; residual activity [33]: 92.4%; residual activity [34]: 100%; residual activity [35]: 100%; residual activity [36]: 94.3%; residual activity [37]: 100%; residual activity [38]: 82.4%; inhibition [39]: 6.5%
CCCCN(CCCC)C(=O)CN1C[C@H](c2cc(OC)c3c(c2)OCO3)[C@@H](C(=O)O)[C@@H]1CC(C)(C)CCC [ABT-546] | 100 | 90.6 | 91.4 | 100 | 100 | 100 | 100 | 54.4 | 14.7 | 86.4 | 50.8 | 100 | 100 | 100 | 79.8 | 100 | 98.6 | 100 | 100 | 97.7 | residual activity [21]: 100%; residual activity [22]: 100%; residual activity [23]: 96.5%; residual activity [24]: 100%; residual activity [25]: 100%; residual activity [26]: 99.1%; residual activity [27]: 100%; residual activity [28]: 100%; residual activity [29]: 100%; residual activity [30]: 80.2%; residual activity [31]: 98.5%; residual activity [32]: 99.1%; residual activity [33]: 100%; residual activity [34]: 100%; residual activity [35]: 100%; residual activity [36]: 100%; residual activity [37]: 70.6%; residual activity [38]: 100%; inhibition [39]: -7.9%
